The text below walks through data of publication PMC10470200 (The Journal of Biological Chemistry, 2023).

Usually Kd stands for the equilibrium constant for the complex coming apart. Read a high Kd as lower affinity.

Test [1] deals with T1, cytochrome P450 3A4 (CYP3A4) (Homo sapiens, UniProt P08684).
T1 construct: Δ3-22 CYP3A4
Put plainly: equilibrium spectral titration, Hill fit (S50; nH […]). In kind it is binding.

The target of test [2] is T2, cytochrome P450 3A4 (CYP3A4) (Homo sapiens, UniProt P08684, F219A).
T2 construct: Δ3-22 CYP3A4
T2 sequence (P08684 23-503 F219A): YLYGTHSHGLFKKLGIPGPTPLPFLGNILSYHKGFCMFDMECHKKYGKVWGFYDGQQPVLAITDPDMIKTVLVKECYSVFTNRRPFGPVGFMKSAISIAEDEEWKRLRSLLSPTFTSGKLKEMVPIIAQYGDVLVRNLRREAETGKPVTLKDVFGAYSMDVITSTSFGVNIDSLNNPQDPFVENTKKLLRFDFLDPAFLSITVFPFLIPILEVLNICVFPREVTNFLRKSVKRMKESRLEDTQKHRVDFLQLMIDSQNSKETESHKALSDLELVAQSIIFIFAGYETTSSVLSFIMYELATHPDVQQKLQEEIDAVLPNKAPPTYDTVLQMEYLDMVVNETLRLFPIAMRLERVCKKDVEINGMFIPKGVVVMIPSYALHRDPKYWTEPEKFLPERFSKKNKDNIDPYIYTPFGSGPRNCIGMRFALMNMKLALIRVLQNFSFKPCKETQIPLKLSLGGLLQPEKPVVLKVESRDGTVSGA
Described as above. Format: binding.

T1 sequence (P08684 23-503): as the sequence (P08684 23-503 F219A) above, with A197F counted along it

As to `CC(=O)[C@H]1CC[C@H]2[C@@H]3CCC4=CC(=O)CC[C@]4(C)[C@H]3CC[C@]12C` [PRG, progesterone], the Kd turned out to be 103 ± 3 µM in test [1] and 158 ± 9 µM in test [2].
